Measured values as given in patent publication US5852213A, “Mercaptoketones and mercaptoalcohols and a process for their preparation” (American Cyanamid Company, priority 1997, dated 1998).

Assays:
stromelysin = settings: PCT application WO 9407481; cited from earlier work
[1] = target: T1, human recombinant fibroblast collagenase (Homo sapiens, UniProt P03956); assay: Collagenase Inhibition in vitro; assay type: biochemical; settings: read-out: Collagenase IC50 (nM) or % inhibition: % inhibition
T1 construct: human recombinant fibroblast collagenase (truncated, mw 18,828, WAR, Radnor)
T1 sequence (P03956 100-269 limits assumed): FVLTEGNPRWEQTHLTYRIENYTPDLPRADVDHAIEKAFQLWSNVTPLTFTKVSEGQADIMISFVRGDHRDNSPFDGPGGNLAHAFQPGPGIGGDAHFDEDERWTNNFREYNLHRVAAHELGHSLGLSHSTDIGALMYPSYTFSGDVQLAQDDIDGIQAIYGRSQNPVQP
Description: Collagenase Inhibition in vitro
The assay is based on the cleavage of a peptide substrate ((Dnp-Pro-Cha-Gly-Cys(Me)-His-Ala-Lys(NMa)-NH2), Peptide International, Inc.) by collagenase releasing the fluorescent NMa group which is quantitated on the fluorometer. Dnp quenches the NMa fluorescence in the intact substrate. […] Substrate is dissolved in methanol and stored frozen in 1 mM aliquots. […] For the assay, substrate is dissolved in HCBC buffer to a final concentration of 10 μM and collagenase to a final concentration of 5 nM. Compounds are dissolved in methanol, DMSO, or HCBC. The methanol and DMSO are diluted in HCBC to <1%. Compounds are added to the 96 well plate containing enzyme and the reaction is started by the addition of substrate.
The slope of the line is calculated and represents the reaction rate.
(§1) The linearity of the reaction rate is confirmed (r^2 >0.85). The mean of the control rate is calculated and compared for statistical significance (p<0.05) with drug-treated rates using Dunnett's multiple comparison test.

[2] = system: human recombinant stromelysin; assay: Stromelysin Inhibition in vitro; assay type: biochemical
Description: Stromelysin Inhibition in vitro.
The increase in OD405 is plotted and the slope of the line is calculated which represents the reaction rate.
as §1

Collangenase I = assay: In vivo MMP Inhibition (enzyme in implanted dialysis tubing); set-up: species or system rat (Sprague-Dawley) or mouse (CD-1)
Description: A 2 cm piece of dialysis tubing (molecular weight cut-off 12-14,000, 10 mm flat width) containing matrix metalloproteinase enzyme (stromelysin, collagenase or gelatinase in 0.5 mL of buffer) is implanted either ip or sc (in the back) of a rat (Sprague-Dawley, 150-200 g) or mouse (CD-1, 25-50 g) under anesthesia. Drugs are administered PO, IP, SC or IV through a canula in the jugular vein. Drugs are administered in a dose volume of 0.1 to 0.25 mL/animal. Contents of the dialysis tubing is collected and enzyme activity assayed.
Enzyme reaction rates for each dialysis tube are calculated. Tubes from at least 3 different animals are used to calculate the mean±sem. Statistical significance (p<0.05) of vehicle-treated animals versus drug-treated animals is determined by analysis of variance. (Agents and Actions 21: 331, 1987)

MMP = settings: EP 0322,184 A2; cited from earlier work

For CC(C)C[C@H](NC(=O)[C@@H](CS)CCc1ccccc1)C(=O)Nc1ccccc1, the “inhibitor of the MMP stromelysin” value (stromelysin) is given as “moderate inhibitor”.

Compound CCCCCCC[C@H](C[C@@H](O)CS)C(=O)N[C@H](C(=O)NC)C(C)(C)C [Example 37, (2R)-2-((2R)-2-Hydroxy-3-mercaptopropyl)nonanoic acid ((1S)-2,2-dimethyl-1-methylcarbamoylpropyl)amide] has an inhibition at 1 µM [1] of 72%.

In the case of CCCCCCC[C@H](C[C@H](O)CS)C(=O)N[C@H](C(=O)NC)C(C)(C)C [Example 38, (2R)-2-((2S)-2-Hydroxy-3-mercaptopropyl)nonanoic acid ((1S)-2,2-dimethyl-l-methylcarbamoylpropyl)amide], the “Stromelysin IC50 (nM) or % inhibition: % inhibition” value (“Stromelysin IC50 … % inhibition” below) ([2]; @ 0.1 μM) is reported as 96% and the “in vivo % Collangenase I inhibition” value (Collangenase I; 50 mpk (milligrams/kilogram)) is reported as 22.2%.

For CNC(=O)[C@@H](NC(=O)[C@H](CC(C)C)C[C@@H](O)CS)C(C)(C)C [Example 39, (2R,4R)-4-Hydroxy-2-isobutyl-5-mercaptopentanoic acid ((1S)-2,2-dimethyl-1-methylcarbamoylpropyl)amide], the “Stromelysin IC50 … % inhibition” value ([2]; @ 300 nM) was 6% and the “in vivo % Collangenase I inhibition” value (Collangenase I; 50 mpk (milligrams/kilogram)) was 20.4%.

With CNC(=O)[C@@H](NC(=O)[C@H](CC(C)C)C[C@H](O)CS)C(C)(C)C [Example 40, (2R,4S)-4-Hydroxy-2-isobutyl-5-mercaptopentanoic acid ((1S)-2,2-dimethyl-1-methylcarbamoylpropyl)amide] the “in vivo % Collangenase I inhibition” value (Collangenase I; 50 mpk (milligrams/kilogram)) was 84.8%.

With CCCCCCC[C@H](CC(=O)CS)C(=O)N[C@H](C(=O)NC)C(C)(C)C [Example 43, (2R)-2-(3-Mercapto-2-oxopropyl)nonanoic acid ((1S)-2,2-dimethyl-1-methylcarbamoylpropyl)amide] the IC50 ([2]; read-out: Stromelysin IC50 (nM) or % inhibition: IC50) was 28 nM and the “in vivo % Collangenase I inhibition” value (Collangenase I; 50 mpk (milligrams/kilogram)) was 0.73%.

With CNC(=O)[C@@H](NC(=O)[C@@H](CC(=O)CS)CC(C)C)C(C)(C)C [Example 44, (2R)-2-Isobutyl-5-mercapto-4-oxopentanoic acid ((1S)-2,2-dimethyl-1-methylcarbamoylpropyl)amide] the “Stromelysin IC50 … % inhibition” value ([2]; @ 1 μM) was 58% and the “in vivo % Collangenase I inhibition” value (Collangenase I; 60 mpk (milligrams/kilogram)) was 4.8%.

In the case of CNC(=O)[C@H](Cc1ccc(OC)cc1)NC(=O)[C@H](CC(C)C)C(S)CC(C)=O (some centres unmarked) [compound where P is 2-oxopropyl], the “times more potent than the compound where P is methyl” value (MMP) is listed as “approximately 20 times”.

For CNC(=O)[C@H](Cc1ccc(OC)cc1)NC(=O)[C@H](CC(C)C)C(C)S (some centres unmarked) [compound where P is methyl], the “times more potent than the compound where P is hydrogen” value (MMP) is listed as “approximately 20 times”.

With “(2R,4R)-4-Hydroxy-2-isobutyl-5-tritylsulfanylpentanoic acid ((1S)-2,2-dimethyl-1-methylcarbamoylpropyl)amide [Example 35]” the “in vivo % Collangenase I inhibition” value (Collangenase I; 50 mpk (milligrams/kilogram)) was 0.44%.
